Legend:
[1] = Clinical study: adverse effects and safety testing; format: in vivo, human
Procedure: The goal of this study was to test the safety and efficacy of an EPA-enriched oil (as described in Examples 1-3; E.I. duPont de Nemours & Co., Inc. Applied Biosciences, Wilmington, Del.), to corroborate the safety of a novel oil rich in EPA in humans prior to this product being placed on the market as a dietary supplement. This oil was tested at doses of 600 mg and 1800 mg of EPA/day as compared to olive oil placebo and a comparator omega-3 oil providing 600 mg of DHA/day over a 6 week period in a parallel arm design in approximately 120 healthy adults studied in both the fasting and post-prandial state. Safety was monitored by assessing for adverse reactions, measuring vital signs and a variety of laboratory tests including a complete metabolic profile, thyroid function tests, complete blood count, and prothrombin time.
Standard chemistry tests were carried at all visits (screening, enrollment, and final study visit after an overnight fast by Quest Laboratories, Cambridge, Mass.): blood urea nitrogen, creatinine, calculated glomerular filtration rate, sodium, potassium, chloride, carbon dioxide, calcium, total protein, albumin, globulin, total bilirubin, alkaline phosphatase, liver transaminases AST and ALT, and glucose. A complete blood count was also performed at all visits and included: hemoglobin, hematocrit, red blood cell count, platelet count, white blood cell count and a white blood cell count differential. Additional tests included: prothrombin time, and measurement of thyroid function including T3, T4 and T3 uptake. […]
At visit 2, subjects were again asked to fast for 12 hours, and information about subject characteristics including all vital signs, recent illness or hospitalization, medication and supplement use, and diet information was again obtained. […] Compliance and adverse events were assessed by telephone at weeks 1 and 3 by telephone and at week 6 by questionnaire and capsule count. […] Compliance was calculated as a percentage of consumed capsule count/expected capsule count based on the number of days the subject was in the study. […]

[2] = Clinical study: fasting insulin and glucose; format: in vivo, human; conditions: 6 weeks
Procedure: Standard chemistry tests were carried at all visits (screening, enrollment, and final study visit after an overnight fast by Quest Laboratories, Cambridge, Mass.): blood urea nitrogen, creatinine, calculated glomerular filtration rate, sodium, potassium, chloride, carbon dioxide, calcium, total protein, albumin, globulin, total bilirubin, alkaline phosphatase, liver transaminases AST and ALT, and glucose. A complete blood count was also performed at all visits and included: hemoglobin, hematocrit, red blood cell count, platelet count, white blood cell count and a white blood cell count differential. Additional tests included: prothrombin time, and measurement of thyroid function including T3, T4 and T3 uptake. All subjects entering the study were required to have: liver function tests (i.e., transaminases) of less than 3 times the upper limits of normal; bilirubin and alkaline phosphatase values in the normal range; serum creatinine levels of less than 2.5 mg/dl; hemoglobin levels over 11 g/dl; a normal prothrombin time; a fasting blood glucose below 200 mg/dl; and, a blood pressure below 170/110 mmHg. All subjects who qualified for the study and met all the screening and laboratory entry criteria were scheduled for an enrollment visit within one month of screening.
At visit 2, subjects were again asked to fast for 12 hours, and information about subject characteristics including all vital signs, recent illness or hospitalization, medication and supplement use, and diet information was again obtained. […] At one week and three weeks after beginning the supplements, all study subjects were contacted by telephone and asked about any adverse effects and about their compliance, and the information on their calendars with regard to capsule use and fish intake. They were also asked about whether they had experienced any fishy aftertaste or odor, and if so, how frequent were these episodes, and how unpleasant were they? The entire process as listed above was repeated after study subjects were on the study capsules for 6 weeks at the time of the final visit. Compliance and adverse events were assessed by telephone at weeks 1 and 3 by telephone and at week 6 by questionnaire and capsule count. Over 42 days, subjects were expected to have consumed a total of 252 capsules. Compliance was calculated as a percentage of consumed capsule count/expected capsule count based on the number of days the subject was in the study. All subjects were asked to stay on their capsules until they come in for their final visit. Compliance in all participants who completed the study was based on capsule count was in excess of 85%, mean 96%.
The following laboratory measurements were carried out on an automated analyzer (Roche Diagnostics, Indianapolis, Ind.) on samples obtained in the fasting state at the randomization visit, and the final visits using frozen aliquots of serum stored at −80 degrees Celsius: 1) total cholesterol; 2) triglycerides; 3) direct high density lipoprotein [“HDL”] cholesterol; 4) direct low density lipoprotein [“LDL”] cholesterol; 5) direct small dense LDL cholesterol; 6) apolipoprotein [“apo”] B; 7) apoA-I; 8) lipoprotein (a); 9) fibrinogen; 10) high sensitivity C reactive protein [“hs-CRP”]; 11) lipoprotein associated phospholipase A2 [“Lp-PLA2”]; and, 12) insulin as previously described. See, McNamara, J. R. and Schaefer, E. J., Clin. Chim. Acta, 166:1-8 (1987); Okada, M. et al., J. Lab. Clin. Med., 132:195-201 (1998); Hirano, T. et al., J. Lipid Res., 44:2193-2201 (2003); Ai, M. et al., Am. J. Cardiol., 101:315-318 (2008); Ingelsson, E. et al., JAMA, 298:776-785 (2007); Jenner, J. L. et al., Circulation, 87:1135-1141 (1993); Schaefer, E. J. et al., Am. J. Cardiol., 95:1025-1032 (2005); McNamara, J. R. et al., Atherosclerosis, 154:229-236 (2001).

Compound	fishy odor with belching occasionally experienced (share of subjects) ([1]; EPA 600 mg group) [%]	fishy odor with belching occasionally experienced (share of subjects) ([1]; EPA 1800 mg group) [%]	Glucose, 6-Week Change (%) ([2]; EPA 600 mg (n = 27))	Glucose, Final ([2]; EPA 600 mg (n = 27)) [mg/dL]	Insulin, 6-Week Change (%) ([2]; EPA 600 mg (n = 27))	Insulin, 6-Week Change (%) ([2]; EPA 600 mg (n = 27), Fast)	Insulin, Final ([2]; EPA 600 mg (n = 27), Fast) [µIU/mL]	fishy odor with belching occasionally experienced (share of subjects) ([1]; DHA 600 mg group) [%]	Insulin, 6-Week Change (%) ([2]; DHA 600 mg (n = 28), Fast)	Insulin, Final ([2]; DHA 600 mg (n = 28), Fast) [µIU/mL]
CCC=CCC=CCC=CCC=CC/C=C\CCCC(=O)O [EPA, cis-5,8, 11, 14, 17-eicosapentaenoic acid]	15	28	+1.3 ± 14.0%	92.1 ± 11.0	+17.4 ± 70.6%	+17.4 ± 70.6%	10.2 ± 7.9	–	–	–
CCC=CCC=CCC=CCC=CCC=CC/C=C\CCC(=O)O [DHA, cis-4,7, 10, 13, 16, 19-docosahexaenoic acid, reference compound]	–	–	–	–	–	–	–	39	+26.7 ± 79.8%	8.4 ± 4.1
